We go through 90 compounds from a melting point compilation (Tetko et al.; mined from patent text by program, amines drawn as free bases though some values may be those of a salt).

The structures appear in SMILES notation.

What is called melting point is the temperature of the solid-liquid transition. With `CC(C)n1cnc2c(Cl)nc(N)nc21`, the melting point is 135 to 136 °C.

As to `COc1ccc(-c2nc3ccc(C=Cc4ccc5nc(-c6ccc(OC)cc6)oc5c4)cc3o2)cc1`, the melting point is 162 °C.

Regarding `CC(=O)C1CCC2C3CCC4CC(O)C(O[N+](=O)[O-])CC4(C)C3C(=O)CC12C` (stereo not given), the melting point was 170 to 176 °C.

`CCOc1cc(Cc2cnc(N)nc2N)cc2c1OC1(C=C2Br)CCC1` displayed a melting point of 213 to 214 °C.

For the compound `O=C(c1ccc(F)cc1)C1CCN(CC2CCc3onc(-c4ccccc4F)c3C2=O)CC1` (stereo not given), the melting point is 99 to 102 °C.

Regarding `Fc1ccc(-c2cc(C(F)(F)F)n[nH]2)c(F)c1`, the melting point was in the range of 157 to 158 °C.

`COc1ccccc1C1CC(=O)CC(c2ccccc2OC)N1C` (stereo not given): the melting point lay in the range of 146 to 148 °C.

Compound `CC1=C(Cl)C(=O)c2ccccc2C1=O` gave a melting point of 152 to 154 °C.

Take `Clc1ccc(OCC2CO2)c(OCc2ccccc2)c1Cl` (stereo not given): the melting point amounted to 65 °C.

The compound `COc1cc(N2CCC(N3CCN(C(=O)OCc4ccccc4)CC3)CC2)ccc1Nc1ncc2ccc(-c3ccccc3OC)n2n1` came in with a melting point of 75 to 76 °C.

As to `COc1cccc(CNC(=O)c2nc3ccc(F)c(OCCc4ccc(NS(N)(=O)=O)cc4)c3c(=O)[nH]2)c1`, the melting point fell in the range of 204 to 206 °C.

The compound `CSc1ccc(C(O)c2ccccc2)cc1` (stereo not given) registered a melting point of 92 to 93.5 °C.

Compound `CC1(O)CCC2(C)C(CCC3C2CCC2(C)C(c4cn5ccccc5n4)CCC32)C1` (stereo not given) showed a melting point of 225 to 226 °C.

`O=C(NC[C@@H](C(=O)NO)N1CCCCC1)c1ccc(OCc2ccncc2)cc1` had a melting point of 190 °C.

Consider `C=CCN(C)C(=S)Nc1ccccc1CC(=O)OC`, for which the melting point was 46 to 47 °C.

With `NS(=O)(=O)c1ccc(S(=O)(=O)N2CCc3cccc(-c4ccncc4)c32)cc1`, the melting point was 242 to 243 °C.

In turn, `Cc1cccc(C(=O)Nc2c[nH]nc2C(=O)NCCC#N)c1` showed a melting point of 149 to 151 °C.

Regarding `O=C(Nc1cccc(Cl)c1)N1CCNC1=N[N+](=O)[O-]`, the melting point lay within 214 to 216 °C.

In the case of `O=C(O)c1ccccc1C=Cc1ccccc1`, the melting point fell in the range of 158 to 159 °C.

Regarding `COc1cccc2c1C=C(C#N)CC2`, the melting point fell in the range of 66 to 68 °C.

In the case of `N#Cc1ccc(C(=O)Cc2ccc(C#N)cc2[N+](=O)[O-])cc1`, the melting point was 188 to 190 °C.

As to `O=c1[nH]c(Cl)nc2c1ncn2COCCO`, the melting point is above 310 °C.

In the case of `O=C(O)c1ccc(C(=O)/C=C/c2ccc(-c3nccs3)cc2)cc1`, the melting point lay in the range of 232 to 235 °C.

`CCCn1c2cc(OCc3ccccc3)ccc2c2ccnc(C)c21`: the melting point was 113 °C.

In turn, `N#Cc1c(C(F)(F)F)[nH]c2cc(Cl)c(Cl)cc12` showed a melting point above 260 °C.

In turn, `O=C(NC1(C2CC2)CC1)c1c(NC(=O)c2cc(Cl)nn2-c2ncccc2Cl)c(Cl)cc2cn[nH]c12` yielded a melting point of 173 to 175 °C.

The compound `CON(C)C(=O)CCc1oc(-n2ccnc2C)nc1-c1ccc(Cl)cc1` came in with a melting point of 116 to 117 °C.

Turning to `C[C@@H](O[C@H]1CCCN(Cc2n[nH]c(=O)[nH]2)[C@H]1c1ccccc1)c1cccc(C(F)(F)F)c1`, the melting point lay within 143 to 145 °C.

Compound `CS(=O)(=O)c1ccc(-c2cnn(-c3cccc(C(F)(F)F)c3)c(=O)c2-c2ccc(Cl)cc2)cc1` registered a melting point of 103 to 105 °C.

Regarding `CCc1[nH]nc2c1C(=O)c1c(NC(=O)NN3CCN(C)CC3)cccc1-2`, the melting point fell in the range of 244 to 246 °C.

As for `c1ccc(C2(N3CCC(n4c(OC5CCNCC5)nc5ccccc54)CC3)CCCCCC2)cc1`, the melting point was 114 to 118 °C.

For `CC(C)CCNCCCS(=O)(=O)O`, the melting point came to 220 °C.

On to `COc1cc(C(=O)O)ccc1Cc1cn(C)c2ccc(N(C(N)=O)C3CCCC3)cc12`, for which the melting point lay in the range of 203 to 206 °C.

With `O=C(O)c1ccccc1-c1n[nH]c(-c2cccc(C(F)(F)F)c2)n1`, the melting point is 200 °C.

The compound `COc1ccc(-c2nc3ccc(OC(F)(F)F)cc3[nH]2)c(OC)c1` yielded a melting point of 201 to 203 °C.

Compound `CCN(CC)CC1CCCCN1CCNC(=O)N1c2ccc(Br)cc2C(=O)Nc2cccnc21` (stereo not given) came in with a melting point of 117 to 119 °C.

In turn, `COC(=O)c1ccc(OCCN2CCN(c3cc(Cl)nnc3Cl)CC2)nc1` had a melting point of 145 to 146 °C.

Take `O=C1NC(=O)C(Cc2ccc(N3CCC(NC[C@H](O)COc4cccnc4)CC3)cc2)S1` (stereo not given in full): the melting point was in the range of 130 to 132 °C.

Regarding `O=C1c2ccccc2CSc2ccc(Br)cc21`, the melting point was 151 to 152 °C.

In the case of `CC(C)n1nc(-c2cnc(N)nc2-c2ccncc2)ccc1=O`, the melting point worked out at 219 °C.

For the compound `COc1ccc(-c2ncnc(-c3ccc(C(F)(F)F)cc3F)c2N)c(O)c1`, the melting point is 100 to 103 °C.

The compound `COc1ccc(-c2cc(-c3ccoc3)c(C(=O)NCc3ccc(C(=O)NO)cc3)[nH]2)cc1` returned a melting point of 189 to 190 °C.

The compound `CCOC(=O)C=CC=Cc1cccc2cncn12` returned a melting point of 101 to 103 °C.

The compound `Cc1nc(CN2C(=O)COc3cc(N)ccc32)no1` returned a melting point of 146 to 148 °C.

`CC(C)(C)c1cc(-c2nnc(C(N)=O)s2)cc(C(C)(C)C)c1O`: the melting point is 200 to 201 °C.

The compound `CC(C)(N)C(O)c1cc(C(F)(F)F)nc2c(C(F)(F)F)cccc12` (stereo not given) displayed a melting point of 175 to 176 °C.

Compound `CC1(C)CCc2c(N3CCOCC3)nc3sc4c(NCCN5CCOCC5)ncnc4c3c21` showed a melting point of 100 to 101 °C.

`CN1CCC(C2Oc3cc(Cl)ccc3Cn3c(Cl)ccc32)CC1` (stereo not given) yielded a melting point of 132 to 140 °C.

Compound `COC(=O)C(Oc1ccc([N+](=O)[O-])cc1)C(C)=O` (stereo not given) returned a melting point of 87.5 to 88 °C.

Consider `COc1nc2ccccc2nc1NC(=O)N1CCN(c2cccc(Br)c2)CC1`, for which the melting point was 148 to 150 °C.

With `O=C(C=P(c1ccccc1)(c1ccccc1)c1ccccc1)N1CCCCC1`, the melting point was in the range of 180 to 188 °C.

Compound `CC(C)(NC(=O)Cc1cccc2ccccc12)C(O)c1ccccc1` (stereo not given) had a melting point of 106 to 107 °C.

For `O=C(Oc1ccc([N+](=O)[O-])cc1)c1cccc2c(Cl)c3ccccc3nc12`, the melting point fell in the range of 194 to 196 °C.

Compound `COCc1c(C(=O)NC(C)C)ncc2[nH]c3cccc(Oc4ccc(Cl)cc4)c3c12` registered a melting point of 255 °C.

Turning to `CC(C)C#CC1(C(F)(F)F)OCC(=O)Nc2ccc(Cl)cc21` (stereo not given), the melting point lay in the range of 183 to 184 °C.

In turn, `Nc1ccnc(Cl)c1Br` registered a melting point of 146 °C.

`CC1(C)C(=O)CC(=O)C(C)(C)C1=O` returned a melting point of 92.5 to 93 °C.

Regarding `CNc1ccc(/C=C/C(=O)O)cn1`, the melting point was found to be 227 °C.

As to `Nc1sc2c(c1C(=O)c1ccc3ccccc3c1)CCC2`, the melting point was 178 to 180 °C.

Consider `Cc1ccc(CC2(O)CCN(CC(=O)Nc3ccc(O[Si](C)(C)C(C)(C)C)cc3)CC2)cc1`, for which the melting point was 136 to 138 °C.

With `NC(=O)C1(c2ccc(F)cc2)OC(=O)c2ccccc21` (stereo not given), the melting point was in the range of 170 to 173 °C.

Regarding `CC(=O)Nc1ccc2c(c1)CCCC2`, the melting point is 62 °C.

The compound `CCCCOC(=O)c1ccc(OCCCC)c(C(C)=O)c1` had a melting point of 39 to 40 °C.

Take `COc1cc(OC(C)C)cc2c1-c1c(OC(C)C)cccc1C2=O`: the melting point fell in the range of 74 to 75 °C.

`O=C1c2ccc3c4cccc5cccc(c6ccc(c2c36)C(=O)N1C1CCCCCCCCCCC1)c54` had a melting point of 285 °C.

In the case of `Cc1nc(N)nc(N)c1C=CC(C)c1ccc(Cl)cc1` (stereo not given), the melting point was in the range of 158 to 165 °C.

Take `CC12CC(=O)C3C(CCC4CC(O)CCC43C)C1CCC2C(=O)CCO` (stereo not given): the melting point fell in the range of 156 to 158 °C.

Consider `CCOC(=O)CCC(=O)c1ccc(C2CCCCC2)cc1`, for which the melting point fell in the range of 54 to 55 °C.

Compound `CCCc1nc2c(N)nc3cc(OCc4ccc(Cl)c(Cl)c4)ccc3c2n1CC(C)C` returned a melting point of 183 to 184 °C.

In the case of `Cc1ncc([N+](=O)[O-])n1CCN1C(=O)CCC1=O`, the melting point is 147 to 148 °C.

`COc1cccc([C@H]2O[C@H](CC(=O)NCc3ccc(C(=O)O)cc3)C(=O)N(CC(C)(C)CO)c3ccc(Cl)cc32)c1OC` came in with a melting point of 143 to 144 °C.

The compound `COc1ccc(CN/C=C2\C(=O)NC(=O)c3cccc(Br)c32)cc1O` displayed a melting point of 204 to 206 °C.

The compound `Cc1cn(-c2cccc(C3=Nc4ccc(-c5ccc(F)cc5)cc4NC(=O)C3)c2)cn1` gave a melting point of 215 °C.

Consider `COc1cc(I)c(C=O)cc1OC`, for which the melting point fell in the range of 139 to 141 °C.

With `COC(=O)c1ccc2oc(CCCCc3cc4cc(C(=O)OC)ccc4o3)cc2c1`, the melting point lay in the range of 130 to 131 °C.

As to `CCCCCCCCCOC1C(O)C(CO)OC1n1cnc2c(N)ncnc21` (stereo not given), the melting point lay in the range of 143 to 144 °C.

On to `COCCCCCCCCCCCC(=O)Nc1cccc(C(=O)O)c1`, for which the melting point lay within 169 to 171 °C.

Turning to `O=S(=O)(C=Cc1ccccc1)On1nnc2ccccc21`, the melting point was in the range of 102 to 103 °C.

Take `CCCCCCCCCc1ccccc1O`: the melting point was 80 °C.

For `COc1cc(OC)cc(-c2nc(CCl)co2)c1`, the melting point lay within 85 to 86 °C.

Compound `CC(C)n1cc(-c2cccc(Cl)c2)c2ncccc2c1=O` registered a melting point of 164 °C.

For `O=S(=O)(c1ccc2ccccc2c1)n1ccc2ccccc21`, the melting point was 103 to 105 °C.

`COc1ccc(-c2nc(NS(=O)(=O)c3ccc(C(C)(C)C)cc3)c(Oc3ccccc3OC)c(OC[C@@H](O)CO)n2)cc1` registered a melting point of 141 to 142 °C.

For `CC(Oc1ncn(-c2ccc(C(F)(F)F)cc2)n1)C(N)=O` (stereo not given), the melting point fell in the range of 178 to 180 °C.

Consider `CCCc1c2c(c(F)c3c(=O)cc(C(=O)OCC)oc13)CCCC2`, for which the melting point fell in the range of 126 to 129 °C.

`COc1ccc2cc([C@H](C)C(=O)OCCOc3ccc(OCCO)cc3)ccc2c1` gave a melting point of 76 to 78 °C.

On to `CCCSC1=NSc2cc(C)cnc2N1Cc1ccc(-c2ccccc2C#N)cc1`, for which the melting point lay within 190 to 192 °C.

In turn, `O=[N+]([O-])c1c(-c2ccc(Cl)cc2)[nH]c(C(F)(F)F)c1-c1csc(Br)c1` registered a melting point of 174 to 176 °C.

For `CC(=O)Nc1ccc2[nH]c(C(=O)N3CC(CCl)c4c3cc(N)c3ccccc43)cc2c1` (stereo not given), the melting point was above 300 °C.

In turn, `O=c1cc(Cl)cnn1CC1CCCCC1` had a melting point of 81.6 to 81.8 °C.
